Laboratory results from patent US20230085307A1, “PYRIDAZINONE COMPOUND AND HERBICIDE” (NISSAN CHEMICAL CORPORATION, priority 2019, published 2023).

Columns and labels:
velvetleaf [1] = assay: Test Example 4: herbicidal effect by soil treatment (Table 19, symbol M); assay type: in vivo, velvetleaf (Abutilon theophrasti); conditions: amount of applied herbicide 320 g/ha
In short: (§1)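 Pre-emergence style soil spray: seeds under ~1.5 cm sterilized diluvial soil received a uniform coat of emulsion diluted to the predetermined herbicide amount. Greenhouse 25–30° C; readout at week three on previously defined criteria.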

lambsquarters [2] = assay: Test Example 4: herbicidal effect by soil treatment (Table 19, symbol O); assay type: in vivo, lambsquarters (Chenopodium album); conditions: amount of applied herbicide 320 g/ha
In short: as §1

wild oat [3] = assay: Test Example 4: herbicidal effect by soil treatment (Table 19, symbol I); assay type: in vivo, wild oat (Avena fatua); conditions: amount of applied herbicide 320 g/ha
In short: as §1

persian speedwell [4] = assay: Test Example 4: herbicidal effect by soil treatment (Table 19, symbol R); assay type: in vivo, Persian speedwell (Veronica persica); conditions: amount of applied herbicide 320 g/ha
In short: as §1

southern crabgrass [5] = assay: Test Example 5: herbicidal effect by foliage application, plastic box (Table 20, symbol F); assay type: in vivo, southern crabgrass (Digitaria ciliaris); conditions: foliage application, 320 g/ha, three weeks after application
In short: (§2)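 Plants were sown into sterilized diluvial soil under about 1.5 cm cover and kept in a greenhouse at 25° C. to 30° C. Fourteen days on, foliage received an even spray of the diluted emulsion. Herbicidal or crop effect was judged three weeks afterwards.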

green foxtail [6] = assay: Test Example 4: herbicidal effect by soil treatment (Table 19, symbol G); assay type: in vivo, green foxtail (Setaria viridis); conditions: amount of applied herbicide 320 g/ha
In short: as §1

blackgrass [7] = assay: Test Example 4: herbicidal effect by soil treatment (Table 19, symbol J); assay type: in vivo, blackgrass (Alopecurus myosuroides); conditions: amount of applied herbicide 320 g/ha
In short: as §1

redroot pigweed [8] = assay: Test Example 4: herbicidal effect by soil treatment (Table 19, symbol N); assay type: in vivo, redroot pigweed (Amaranthus retroflexus); conditions: amount of applied herbicide 320 g/ha
In short: as §1

rice flat sedge = assay: Test Example 3: herbicidal effect by foliage application, Wagner pot (Table 18, symbol E); assay type: in vivo, rice flat sedge (Cyperus iria)
In short: (§3)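 Plants were sown in alluvial soil held under 0.1–0.5 cm standing water and grown 14 days in a greenhouse at 25–30 °C. An emulsifiable formulation, water-diluted to the set dose, was then sprayed onto the foliage, and effects were scored three weeks later using previously defined criteria.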

velvetleaf [9] = assay: Test Example 5: herbicidal effect by foliage application, plastic box (Table 20, symbol M); assay type: in vivo, velvetleaf (Abutilon theophrasti); conditions: foliage application, 320 g/ha, three weeks after application
In short: as §2

Italian ryegrass [10] = assay: Test Example 5: herbicidal effect by foliage application, plastic box (Table 20, symbol K); assay type: in vivo, Italian ryegrass (Lolium multiflorum); conditions: foliage application, 320 g/ha, three weeks after application
In short: as §2

chickweed [11] = assay: Test Example 5: herbicidal effect by foliage application, plastic box (Table 20, symbol P); assay type: in vivo, common chickweed (Stellaria media); conditions: foliage application, 320 g/ha, three weeks after application
In short: as §2

windgrass [12] = assay: Test Example 4: herbicidal effect by soil treatment (Table 19, symbol L); assay type: in vivo, windgrass (Apera spica-venti); conditions: amount of applied herbicide 320 g/ha
In short: as §1

lambsquarters [13] = assay: Test Example 5: herbicidal effect by foliage application, plastic box (Table 20, symbol O); assay type: in vivo, lambsquarters (Chenopodium album); conditions: foliage application, 320 g/ha, three weeks after application
In short: as §2

blackgrass [14] = assay: Test Example 5: herbicidal effect by foliage application, plastic box (Table 20, symbol J); assay type: in vivo, blackgrass (Alopecurus myosuroides); conditions: foliage application, 320 g/ha, three weeks after application
In short: as §2

Chinese sprangletop = assay: Test Example 3: herbicidal effect by foliage application, Wagner pot (Table 18, symbol D); assay type: in vivo, chinese sprangletop (Leptochloa chinensis)
In short: as §3

persian speedwell [15] = assay: Test Example 5: herbicidal effect by foliage application, plastic box (Table 20, symbol R); assay type: in vivo, Persian speedwell (Veronica persica); conditions: foliage application, 320 g/ha, three weeks after application
In short: as §2

wild oat [16] = assay: Test Example 5: herbicidal effect by foliage application, plastic box (Table 20, symbol I); assay type: in vivo, wild oat (Avena fatua); conditions: foliage application, 320 g/ha, three weeks after application
In short: as §2

barnyard grass [17] = assay: Test Example 3: herbicidal effect by foliage application, Wagner pot (Table 18, symbol H); assay type: in vivo, barnyard grass (Echinochloa crus-galli)
In short: as §3

chickweed [18] = assay: Test Example 4: herbicidal effect by soil treatment (Table 19, symbol P); assay type: in vivo, common chickweed (Stellaria media); conditions: amount of applied herbicide 320 g/ha
In short: as §1

redroot pigweed [19] = assay: Test Example 5: herbicidal effect by foliage application, plastic box (Table 20, symbol N); assay type: in vivo, redroot pigweed (Amaranthus retroflexus); conditions: foliage application, 320 g/ha, three weeks after application
In short: as §2

Italian ryegrass [20] = assay: Test Example 4: herbicidal effect by soil treatment (Table 19, symbol K); assay type: in vivo, Italian ryegrass (Lolium multiflorum); conditions: amount of applied herbicide 320 g/ha
In short: as §1

green foxtail [21] = assay: Test Example 5: herbicidal effect by foliage application, plastic box (Table 20, symbol G); assay type: in vivo, green foxtail (Setaria viridis); conditions: foliage application, 320 g/ha, three weeks after application
In short: as §2

barnyard grass [22] = assay: Test Example 4: herbicidal effect by soil treatment (Table 19, symbol H); assay type: in vivo, barnyard grass (Echinochloa crus-galli); conditions: amount of applied herbicide 320 g/ha
In short: as §1

false cleavers = assay: Test Example 4: herbicidal effect by soil treatment (Table 19, symbol Q); assay type: in vivo, false cleavers (Galium spurium); conditions: amount of applied herbicide 320 g/ha
In short: as §1

southern crabgrass [23] = assay: Test Example 4: herbicidal effect by soil treatment (Table 19, symbol F); assay type: in vivo, southern crabgrass (Digitaria ciliaris); conditions: amount of applied herbicide 320 g/ha
In short: as §1

barnyard grass [24] = assay: Test Example 5: herbicidal effect by foliage application, plastic box (Table 20, symbol H); assay type: in vivo, barnyard grass (Echinochloa crus-galli); conditions: foliage application, 320 g/ha, three weeks after application
In short: as §2

windgrass [25] = assay: Test Example 5: herbicidal effect by foliage application, plastic box (Table 20, symbol L); assay type: in vivo, windgrass (Apera spica-venti); conditions: foliage application, 320 g/ha, three weeks after application
In short: as §2

[26] = amount of applied herbicide 320 g/ha

CC(=O)CSc1ccc(-c2sc3ccc(F)cc3c2-c2c(O)c(C)nn(C)c2=O)cc1 [2-424]
herbicidal effect, M: velvetleaf (velvetleaf [1]): 2 (Herbicidal rate of 20% or more and less than 40%) | herbicidal effect, O: lambsquarters (lambsquarters [2]): 3 (Herbicidal rate of 40% or more and less than 70%) | herbicidal effect, I: wild oat (wild oat [3]): 0 (Herbicidal rate of 5% or less (almost no effect)) | herbicidal effect, R: persian speedwell (persian speedwell [4]): 0 (Herbicidal rate of 5% or less (almost no effect)) | F: southern crabgrass, herbicidal effect grade (southern crabgrass [5]): 3 (Herbicidal rate of 40% or more and less than 70%) | herbicidal effect, G: green foxtail (green foxtail [6]): 0 (Herbicidal rate of 5% or less (almost no effect)) | herbicidal effect, J: blackgrass (blackgrass [7]): 0 (Herbicidal rate of 5% or less (almost no effect)) | herbicidal effect, N: redroot pigweed (redroot pigweed [8]): 4 (Herbicidal rate of 70% or more and less than 90%) | herbicidal effect on E: rice flat sedge (rice flat sedge; [26]): 4 (Herbicidal rate of 70% or more and less than 90%) | M: velvetleaf, herbicidal effect grade (velvetleaf [9]): 3 (Herbicidal rate of 40% or more and less than 70%) | K: Italian ryegrass, herbicidal effect grade (Italian ryegrass [10]): 1 (Herbicidal rate of 5% or more and less than 20%) | P: chickweed, herbicidal effect grade (chickweed [11]): 5 (Herbicidal rate of 90% or more (almost completely withered)) | herbicidal effect, L: windgrass (windgrass [12]): 0 (Herbicidal rate of 5% or less (almost no effect)) | O: lambsquarters, herbicidal effect grade (lambsquarters [13]): 3 (Herbicidal rate of 40% or more and less than 70%) | J: blackgrass, herbicidal effect grade (blackgrass [14]): 3 (Herbicidal rate of 40% or more and less than 70%) | herbicidal effect on D: Chinese sprangletop (Chinese sprangletop; [26]): 3 (Herbicidal rate of 40% or more and less than 70%) | R: persian speedwell, herbicidal effect grade (persian speedwell [15]): 4 (Herbicidal rate of 70% or more and less than 90%) | I: wild oat, herbicidal effect grade (wild oat [16]): 4 (Herbicidal rate of 70% or more and less than 90%) | herbicidal effect on H: barnyard grass (barnyard grass [17]; [26]): 5 (Herbicidal rate of 90% or more (almost completely withered)) | herbicidal effect, P: chickweed (chickweed [18]): 0 (Herbicidal rate of 5% or less (almost no effect)) | N: redroot pigweed, herbicidal effect grade (redroot pigweed [19]): 5 (Herbicidal rate of 90% or more (almost completely withered)) | herbicidal effect, K: Italian ryegrass (Italian ryegrass [20]): 0 (Herbicidal rate of 5% or less (almost no effect)) | G: green foxtail, herbicidal effect grade (green foxtail [21]): 3 (Herbicidal rate of 40% or more and less than 70%) | herbicidal effect, H: barnyard grass (barnyard grass [22]): 0 (Herbicidal rate of 5% or less (almost no effect)) | herbicidal effect, Q: false cleavers (false cleavers): 0 (Herbicidal rate of 5% or less (almost no effect)) | herbicidal effect, F: southern crabgrass (southern crabgrass [23]): 0 (Herbicidal rate of 5% or less (almost no effect)) | H: barnyard grass, herbicidal effect grade (barnyard grass [24]): 5 (Herbicidal rate of 90% or more (almost completely withered)) | L: windgrass, herbicidal effect grade (windgrass [25]): 4 (Herbicidal rate of 70% or more and less than 90%)

Cc1nn(C)c(=O)c(-c2c(-c3ccc(OC(F)(F)F)cc3)sc3cc(F)ccc23)c1O [3-143]
Herbicidal effect by soil treatment, M: velvetleaf (velvetleaf [1]): 0 (Herbicidal rate of 5% or less (almost no effect)) | Herbicidal effect by soil treatment, O: lambsquarters (lambsquarters [2]): 4 (Herbicidal rate of 70% or more and less than 90%) | Herbicidal effect by soil treatment, I: wild oat (wild oat [3]): 0 (Herbicidal rate of 5% or less (almost no effect)) | Herbicidal effect by soil treatment, R: persian speedwell (persian speedwell [4]): 3 (Herbicidal rate of 40% or more and less than 70%) | F: southern crabgrass, herbicidal effect grade (southern crabgrass [5]): 1 (Herbicidal rate of 5% or more and less than 20%) | Herbicidal effect by soil treatment, G: green foxtail (green foxtail [6]): 2 (Herbicidal rate of 20% or more and less than 40%) | Herbicidal effect by soil treatment, J: blackgrass (blackgrass [7]): 0 (Herbicidal rate of 5% or less (almost no effect)) | Herbicidal effect by soil treatment, N: redroot pigweed (redroot pigweed [8]): 4 (Herbicidal rate of 70% or more and less than 90%) | herbicidal effect on rice flat sedge (E) (rice flat sedge; 320 g/ha): 5 (Herbicidal rate of 90% or more (almost completely withered)) | M: velvetleaf, herbicidal effect grade (velvetleaf [9]): 5 (Herbicidal rate of 90% or more (almost completely withered)) | K: Italian ryegrass, herbicidal effect grade (Italian ryegrass [10]): 5 (Herbicidal rate of 90% or more (almost completely withered)) | P: chickweed, herbicidal effect grade (chickweed [11]): 5 (Herbicidal rate of 90% or more (almost completely withered)) | Herbicidal effect by soil treatment, L: windgrass (windgrass [12]): 4 (Herbicidal rate of 70% or more and less than 90%) | O: lambsquarters, herbicidal effect grade (lambsquarters [13]): 5 (Herbicidal rate of 90% or more (almost completely withered)) | J: blackgrass, herbicidal effect grade (blackgrass [14]): 5 (Herbicidal rate of 90% or more (almost completely withered)) | herbicidal effect on Chinese sprangletop (D) (Chinese sprangletop; 320 g/ha): 4 (Herbicidal rate of 70% or more and less than 90%) | R: persian speedwell, herbicidal effect grade (persian speedwell [15]): 5 (Herbicidal rate of 90% or more (almost completely withered)) | I: wild oat, herbicidal effect grade (wild oat [16]): 0 (Herbicidal rate of 5% or less (almost no effect)) | herbicidal effect on barnyard grass (H) (barnyard grass [17]; 320 g/ha): 5 (Herbicidal rate of 90% or more (almost completely withered)) | Herbicidal effect by soil treatment, P: chickweed (chickweed [18]): 0 (Herbicidal rate of 5% or less (almost no effect)) | N: redroot pigweed, herbicidal effect grade (redroot pigweed [19]): 5 (Herbicidal rate of 90% or more (almost completely withered)) | Herbicidal effect by soil treatment, K: Italian ryegrass (Italian ryegrass [20]): 0 (Herbicidal rate of 5% or less (almost no effect)) | G: green foxtail, herbicidal effect grade (green foxtail [21]): 4 (Herbicidal rate of 70% or more and less than 90%) | Herbicidal effect by soil treatment, H: barnyard grass (barnyard grass [22]): 0 (Herbicidal rate of 5% or less (almost no effect)) | Herbicidal effect by soil treatment, Q: false cleavers (false cleavers): 3 (Herbicidal rate of 40% or more and less than 70%) | Herbicidal effect by soil treatment, F: southern crabgrass (southern crabgrass [23]): 0 (Herbicidal rate of 5% or less (almost no effect)) | H: barnyard grass, herbicidal effect grade (barnyard grass [24]): 4 (Herbicidal rate of 70% or more and less than 90%) | L: windgrass, herbicidal effect grade (windgrass [25]): 5 (Herbicidal rate of 90% or more (almost completely withered))
